Assay results reported in ChEMBL document CHEMBL1201862, “PubChem BioAssay data set” (2004).
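Assay format: 96-well plates, 48-hour exposure. Abbreviation: GI50, concentration required for 50% inhibition of growth.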 Active and inactive are the calls of the source. Cut-off read from the data, not from the text of the source: active = GI50 up to about 1.1 µM and inactive = higher.

Tests used:
Assay in all cases: NCI anticancer screen, dose series, 48 h
[1] = test system: DMS-273
[2] = test system: XF498
[3] = test system: M19-MEL
[4] = test system: LXFL 529
[5] = test system: DLD-1
[6] = test system: DMS-114
[7] = test system: RXF 631
[8] = test system: SNB-78
[9] = test system: HOP-18

SMILES	GI50 [1]	GI50 [2]	GI50 [3]	GI50 [4]	GI50 [5]	GI50 [6]	GI50 [7]	GI50 [8]	GI50 [9]
COc1ccc(S(=O)(=O)NNS(C)(=O)=O)cc1OC	> 100 µM (inactive)	> 100 µM (inactive)	> 100 µM (inactive)	> 100 µM (inactive)	> 100 µM (inactive)				
OC1=CN=COc2ccccc21	> 100 µM (inactive)		> 100 µM (inactive)	> 100 µM (inactive)	> 100 µM (inactive)	> 100 µM (inactive)	> 100 µM (inactive)	> 100 µM (inactive)	
CCCCCCCCCCCCCP(=O)(NCC(N)=O)OCC (configuration not stated)		19.1 µM (inactive)	19.7 µM (inactive)	16.8 µM (inactive)	17.1 µM (inactive)	15.2 µM (inactive)	18.9 µM (inactive)	20 µM (inactive)	2.38 µM (inactive)
CC(=O)CC(=O)NC=O	> 100 µM (inactive)	> 100 µM (inactive)	> 100 µM (inactive)	> 100 µM (inactive)	> 100 µM (inactive)	> 100 µM (inactive)	> 100 µM (inactive)	> 100 µM (inactive)	> 100 µM (inactive)
O=C(Cc1ccccc1)NS(=O)(=O)c1ccccc1	> 100 µM (inactive)	> 100 µM (inactive)		> 100 µM (inactive)	> 100 µM (inactive)	> 100 µM (inactive)	> 100 µM (inactive)	> 100 µM (inactive)	> 100 µM (inactive)
CC[C@@H]1OC2(C)CC(S(=O)(=O)c3ccccc3)CC1O2 (some centres not stated)	> 100 µM (inactive)		> 100 µM (inactive)	> 100 µM (inactive)	> 100 µM (inactive)	> 100 µM (inactive)	> 100 µM (inactive)	> 100 µM (inactive)	> 100 µM (inactive)
CC(=O)C1CC2(c3ccccc3)C(=O)c3ccccc3N2O1 (configuration not stated)	> 100 µM (inactive)	> 100 µM (inactive)	> 100 µM (inactive)	> 100 µM (inactive)	> 100 µM (inactive)	> 100 µM (inactive)		> 100 µM (inactive)	> 100 µM (inactive)
COCC(C)(C)/N=C/N1Cc2cc3ccccc3nc2C1		> 100 µM (inactive)	> 100 µM (inactive)		> 100 µM (inactive)	> 100 µM (inactive)			> 100 µM (inactive)
COC1=C(C(=O)OC(C)(C)C)[C@]2(C)C(C(=O)OC(C)(C)C)C(OC)=C(C(=O)OC(C)(C)C)[C@]2(C)C1C(=O)OC(C)(C)C (some centres not stated)	97.7 µM (inactive)	> 100 µM (inactive)	> 100 µM (inactive)	> 100 µM (inactive)	83.9 µM (inactive)	53.1 µM (inactive)		> 100 µM (inactive)	> 100 µM (inactive)
O=C1/C(=C/c2ccccc2)CN(C(=O)Oc2ccccc2)C/C1=C\c1ccccc1	23.1 µM (inactive)		65.5 µM (inactive)	50.6 µM (inactive)		17.4 µM (inactive)		20.4 µM (inactive)	> 100 µM (inactive)
CC12C(=O)N(CCN)C(=O)C1C1c3ccccc3C2c2ccccc21 (configuration not stated)	> 100 µM (inactive)	> 100 µM (inactive)	> 100 µM (inactive)	> 100 µM (inactive)	> 100 µM (inactive)	> 100 µM (inactive)		> 100 µM (inactive)	> 100 µM (inactive)
COC1C2c3cc4c(cc3CC(C#N)(c3ccccc32)N1C(=O)c1ccccc1)OCO4 (configuration not stated)	> 100 µM (inactive)	> 100 µM (inactive)		> 100 µM (inactive)	> 100 µM (inactive)	70.6 µM (inactive)	> 100 µM (inactive)	> 100 µM (inactive)	> 100 µM (inactive)
Cn1c2ccccc2n2c(=O)c3c(c(C#N)c12)CCCC3	> 100 µM (inactive)	> 100 µM (inactive)	> 100 µM (inactive)		> 100 µM (inactive)	> 100 µM (inactive)		> 100 µM (inactive)	
CCOC(=O)C(C)(C)Oc1ccc2c(-c3ccc(Cl)cc3)cc(=O)oc2c1	> 100 µM (inactive)		> 100 µM (inactive)	> 100 µM (inactive)	> 100 µM (inactive)	> 100 µM (inactive)	> 100 µM (inactive)		
C=C(CN(C)C)C(=O)c1ccccc1OC	17.2 µM (inactive)	17.9 µM (inactive)	16.3 µM (inactive)	3.68 µM (inactive)	4.49 µM (inactive)	21.1 µM (inactive)		25.6 µM (inactive)	6.08 µM (inactive)
Nc1ccc(Nc2nc(F)nc(-c3c4ccccc4c4n3CCS4)n2)cc1	10.4 µM (inactive)	4.91 µM (inactive)	16.5 µM (inactive)	14.9 µM (inactive)	16.7 µM (inactive)	17.1 µM (inactive)	15 µM (inactive)	36.1 µM (inactive)	13.8 µM (inactive)
O=C1C=CN(C2OC(CO)C(O)C2O)C(=O)C1 (configuration not stated)	1730 µM (inactive)		35.6 µM (inactive)		24.6 µM (inactive)				557 µM (inactive)
Cc1cc(Cl)ccc1NC1=NC(=O)C(CC(=O)Nc2ccc([N+](=O)[O-])cc2[N+](=O)[O-])S1 (configuration not stated)	30.5 µM (inactive)	20.6 µM (inactive)	25.9 µM (inactive)	18.8 µM (inactive)	34.1 µM (inactive)	19.9 µM (inactive)		28.6 µM (inactive)	
CCC(C)CC(C)CC(C)/C=C(\C)C1=C(C)CC(C)(O)O1 (configuration not stated)	98.4 µM (inactive)		> 100 µM (inactive)	53 µM (inactive)	> 100 µM (inactive)	64.1 µM (inactive)	> 100 µM (inactive)	86.9 µM (inactive)	> 100 µM (inactive)
C[C@@H]1C2=CC[C@@]3(C)C(CCC3[C@H](C)[C@H]3C[C@@]4(C)O[C@@](c5cccnc5)(O3)OC4(C)C)[C@@H]2C2OC2[C@@]12CCC(=O)O2 (some centres not stated)	37.5 µM (inactive)		41.2 µM (inactive)	35.5 µM (inactive)	49.1 µM (inactive)	33 µM (inactive)		85.1 µM (inactive)	20.5 µM (inactive)
COC(=O)[C@@]12OC[C@]34C([C@@H](O)C1O)[C@@]1(C)CC(=O)C(O)=C(C)C1C[C@H]3OC(=O)[C@H](OC(=O)/C=C(/c1ccccc1)C(F)(F)F)[C@H]42 (some centres not stated)	0.989 µM (active)	2.22 µM (inactive)	1.19 µM (inactive)	2.65 µM (inactive)	5.41 µM (inactive)	4.19 µM (inactive)		9.1 µM (inactive)	6.3 µM (inactive)
CCC1(O)C(=O)OCc2c1cc1n(c2=O)Cc2cc3ccc(CO)cc3nc2-1 (configuration not stated)	1.12 µM (active)	1.29 µM (inactive)	3.71 µM (inactive)	26.7 µM (inactive)	51.3 µM (inactive)	1.82 µM (inactive)	3.31 µM (inactive)		5.46 µM (inactive)
CC(=O)OC(C)(C)/C=C/C(=O)[C@](C)(O)[C@H]1[C@H](O)C[C@@]2(C)[C@@H]3CC=C4[C@@H](C=C(O)C(=O)C4(C)C)[C@]3(C)C(=O)C[C@]12C [CUCURBITACIN E]	0.0241 µM (active)	0.0356 µM (active)	0.0807 µM (active)	0.0339 µM (active)	0.0302 µM (active)	0.0715 µM (active)	0.0406 µM (active)	0.0914 µM (active)	0.06 µM (active)
O=P(O)(NCCCl)NCCCl [PALIFOSFAMIDE]	40 µM (inactive)	> 10 µM (inactive)	> 10 µM (inactive)	> 10 µM (inactive)	> 10 µM (inactive)	7.33 µM (inactive)	> 100 µM (inactive)	> 10 µM (inactive)	> 10 µM (inactive)
